Assay: xn = mol fraction of the nth substance listed
Conditions: 101 kPa, frequency 0.001 MHz

CCCCCCCCCCCCCCn1cc[n+](C)c1.[Br-] + CC[N+](CC)(CC)CC.[Br-] + O
electrical conductivity [S/m]
Conditions | 298.15 K | 308.15 K | 318.15 K
x1 = 4.74e-06, x2 = 0 | 0.00249 | 0.00401 | 0.00409
x1 = 4.74e-06, x2 = 1.802e-05 | 0.0133 | 0.0165 | 0.0198
x1 = 4.74e-06, x2 = 3.604e-05 | 0.0213 | 0.0264 | 0.0318
x1 = 4.74e-06, x2 = 9.009e-05 | 0.0427 | 0.053 | 0.063
x1 = 9.35e-06, x2 = 0 | 0.00459 | 0.00671 | 0.00708
x1 = 9.35e-06, x2 = 1.802e-05 | 0.0152 | 0.0187 | 0.0223
x1 = 9.36e-06, x2 = 3.604e-05 | 0.023 | 0.0283 | 0.0345
x1 = 9.36e-06, x2 = 9.009e-05 | 0.0444 | 0.0542 | 0.0648
x1 = 1.386e-05, x2 = 0 | 0.0065 | 0.0093 | 0.0101
x1 = 1.386e-05, x2 = 1.802e-05 | 0.017 | 0.0209 | 0.025
x1 = 1.386e-05, x2 = 3.604e-05 | 0.0249 | 0.0306 | 0.0365
x1 = 1.387e-05, x2 = 9.009e-05 | 0.0459 | 0.056 | 0.0665
x1 = 1.825e-05, x2 = 0 | 0.00834 | 0.011 | 0.0127
x1 = 1.826e-05, x2 = 1.802e-05 | 0.0185 | 0.0231 | 0.0271
x1 = 1.826e-05, x2 = 3.604e-05 | 0.0264 | 0.0325 | 0.0389
x1 = 1.827e-05, x2 = 9.009e-05 | 0.0472 | 0.058 | 0.0681
x1 = 2.252e-05, x2 = 0 | 0.0101 | 0.0135 | 0.0154
x1 = 2.253e-05, x2 = 1.802e-05 | 0.0201 | 0.0251 | 0.0294
x1 = 2.253e-05, x2 = 3.604e-05 | 0.0281 | 0.0343 | 0.0416
x1 = 2.255e-05, x2 = 9.009e-05 | 0.0479 | 0.0594 | 0.0705
x1 = 2.669e-05, x2 = 0 | 0.0119 | 0.0154 | 0.0182
x1 = 2.669e-05, x2 = 1.802e-05 | 0.0216 | 0.0268 | 0.0318
x1 = 2.67e-05, x2 = 3.604e-05 | 0.0295 | 0.0364 | 0.0432
x1 = 2.671e-05, x2 = 9.009e-05 | 0.049 | 0.0611 | 0.0723
x1 = 3.076e-05, x2 = 0 | 0.0136 | 0.0173 | 0.0206
x1 = 3.077e-05, x2 = 1.802e-05 | 0.0232 | 0.0286 | 0.0341
x1 = 3.077e-05, x2 = 3.604e-05 | 0.0307 | 0.0381 | 0.0451
x1 = 3.079e-05, x2 = 9.009e-05 | 0.0493 | 0.0618 | 0.0738
x1 = 3.474e-05, x2 = 0 | 0.0152 | 0.0199 | 0.0232
x1 = 3.475e-05, x2 = 1.802e-05 | 0.0248 | 0.0305 | 0.0362
x1 = 3.475e-05, x2 = 3.604e-05 | 0.0315 | 0.0399 | 0.0472
x1 = 3.477e-05, x2 = 9.009e-05 | 0.0495 | 0.0619 | 0.0748
x1 = 3.862e-05, x2 = 0 | 0.0167 | 0.0218 | 0.0253
x1 = 3.862e-05, x2 = 1.802e-05 | 0.0261 | 0.0324 | 0.0384
x1 = 3.863e-05, x2 = 3.604e-05 | 0.0318 | 0.0405 | 0.0492
x1 = 3.865e-05, x2 = 9.009e-05 | 0.0494 | 0.0621 | 0.0752
x1 = 4.24e-05, x2 = 0 | 0.0183 | 0.0238 | 0.028
x1 = 4.241e-05, x2 = 1.802e-05 | 0.0265 | 0.0333 | 0.0404
x1 = 4.242e-05, x2 = 3.604e-05 | 0.0322 | 0.0409 | 0.0511
x1 = 4.244e-05, x2 = 9.009e-05 | 0.0497 | 0.0622 | 0.0753
x1 = 4.613e-05, x2 = 0 | 0.0192 | 0.0252 | 0.0303
x1 = 4.614e-05, x2 = 1.802e-05 | 0.0271 | 0.034 | 0.042
x1 = 4.615e-05, x2 = 3.604e-05 | 0.0326 | 0.0414 | 0.0518
x1 = 4.617e-05, x2 = 9.009e-05 | 0.0499 | 0.0623 | 0.0756
x1 = 4.973e-05, x2 = 0 | 0.0199 | 0.0265 | 0.0322
x1 = 4.974e-05, x2 = 1.802e-05 | 0.0274 | 0.0345 | 0.0432
x1 = 4.975e-05, x2 = 3.604e-05 | 0.0329 | 0.0419 | 0.0525
x1 = 4.978e-05, x2 = 9.009e-05 | 0.05 | 0.0627 | 0.0758
x1 = 5.334e-05, x2 = 0 | 0.0204 | 0.0273 | 0.0335
x1 = 5.335e-05, x2 = 1.802e-05 | 0.0278 | 0.035 | 0.0441
x1 = 5.336e-05, x2 = 3.604e-05 | 0.0333 | 0.0423 | 0.0531
x1 = 5.339e-05, x2 = 9.009e-05 | 0.0501 | 0.063 | 0.0761
x1 = 5.676e-05, x2 = 0 | 0.0209 | 0.0282 | 0.0345
x1 = 5.677e-05, x2 = 1.802e-05 | 0.0283 | 0.0354 | 0.0449
x1 = 5.678e-05, x2 = 3.604e-05 | 0.0336 | 0.0428 | 0.0534
x1 = 5.681e-05, x2 = 9.009e-05 | 0.0503 | 0.063 | 0.0763
x1 = 6e-05, x2 = 0 | 0.0213 | 0.0288 | 0.0356
x1 = 6.001e-05, x2 = 1.802e-05 | 0.0286 | 0.0359 | 0.0455
x1 = 6.003e-05, x2 = 3.604e-05 | 0.0338 | 0.0432 | 0.0541
x1 = 6.006e-05, x2 = 9.009e-05 | 0.0505 | 0.0633 | 0.0768
x1 = 6.343e-05, x2 = 0 | 0.0217 | 0.0294 | 0.0365
x1 = 6.344e-05, x2 = 1.802e-05 | 0.0289 | 0.0364 | 0.0461
x1 = 6.345e-05, x2 = 3.604e-05 | 0.0341 | 0.0435 | 0.0542
x1 = 6.349e-05, x2 = 9.009e-05 | 0.0507 | 0.0636 | 0.0773
x1 = 6.667e-05, x2 = 0 | 0.0221 | 0.03 | 0.0372
x1 = 6.668e-05, x2 = 1.802e-05 | 0.0293 | 0.0368 | 0.0467
x1 = 6.67e-05, x2 = 3.604e-05 | 0.0344 | 0.0439 | 0.0548
x1 = 6.673e-05, x2 = 9.009e-05 | 0.0508 | 0.0637 | 0.0777
x1 = 6.973e-05, x2 = 0 | 0.0225 | 0.0305 | 0.0377
x1 = 6.975e-05, x2 = 1.802e-05 | 0.0296 | 0.0373 | 0.0473
x1 = 6.976e-05, x2 = 3.604e-05 | 0.0346 | 0.0442 | 0.0552
x1 = 6.98e-05, x2 = 9.009e-05 | 0.0511 | 0.0641 | 0.0781
x1 = 7.28e-05, x2 = 0 | 0.0229 | 0.0311 | 0.0383
x1 = 7.281e-05, x2 = 1.802e-05 | 0.0299 | 0.0375 | 0.0478
x1 = 7.282e-05, x2 = 3.604e-05 | 0.0349 | 0.0445 | 0.0555
x1 = 7.287e-05, x2 = 9.009e-05 | 0.0512 | 0.0646 | 0.0785
x1 = 7.586e-05, x2 = 0 | 0.0233 | 0.0316 | 0.0389
x1 = 7.587e-05, x2 = 1.802e-05 | 0.0302 | 0.0382 | 0.0482
x1 = 7.589e-05, x2 = 3.604e-05 | 0.0351 | 0.0453 | 0.0561
x1 = 7.593e-05, x2 = 9.009e-05 | 0.0516 | 0.065 | 0.0786
x1 = 7.892e-05, x2 = 0 | 0.0236 | 0.0321 | 0.0396
x1 = 7.894e-05, x2 = 1.802e-05 | 0.0304 | 0.0389 | 0.0485
x1 = 7.895e-05, x2 = 3.604e-05 | 0.0353 | 0.0455 | 0.0568
x1 = 7.9e-05, x2 = 9.008e-05 | 0.0519 | 0.0654 | 0.0789
x1 = 8.18e-05, x2 = 0 | 0.024 | 0.0326 | 0.0408
x1 = 8.182e-05, x2 = 1.802e-05 | 0.0307 | 0.0391 | 0.0492
x1 = 8.184e-05, x2 = 3.604e-05 | 0.0356 | 0.0458 | 0.0571
x1 = 8.188e-05, x2 = 9.008e-05 | 0.0522 | 0.0658 | 0.0792
x1 = 8.451e-05, x2 = 0 | 0.0243 | 0.0329 | 0.0414
x1 = 8.452e-05, x2 = 1.802e-05 | 0.0308 | 0.0395 | 0.0496
x1 = 8.454e-05, x2 = 3.604e-05 | 0.0358 | 0.0462 | 0.0573
x1 = 8.459e-05, x2 = 9.008e-05 | 0.0524 | 0.066 | 0.0796
x1 = 8.739e-05, x2 = 0 | 0.0246 | 0.0333 | 0.0418
x1 = 8.741e-05, x2 = 1.802e-05 | 0.0312 | 0.0399 | 0.0502
x1 = 8.742e-05, x2 = 3.604e-05 | 0.036 | 0.0464 | 0.058
x1 = 8.747e-05, x2 = 9.008e-05 | 0.0526 | 0.0665 | 0.0801

From the CheMixHub ionic liquid set
